# Patent US11447471B2, “α,β-unsaturated amide compound” (KYOWA KIRIN CO., LTD., priority 2017, dated 2022)
# System: NCI-H322 cells
# Assay: Cell growth inhibitory effect on human lung cancer cell line (cell counting kit 8, 6 days)
# Type: cell-based
# Conditions: 144 h; human lung cancer cell line NCI-H322, 6 days incubation
# Text: (§1) NCI-H226 cells, a human mesothelioma cell line (ATCC, CRL-5826), NCI-H322 cells, a human lung cancer cell line (the European Collection of Authenticated Cell Cultures, 95111734), OUTOKO cells, a human ovarian cancer cell line (JCRB cell bank, KRB1048) and […] were each subcultured by keeping the cell density under 80% in a RPMI1640 culture medium with 10% fetal bovine serum (FBS). NCI-H226 cells, NCI-H322 cells and SSP-25 cells were each suspended in the RPMI1640 culture medium mentioned above, and plated to a 96-well flat-bottom plate at 500 cells/well in each well, and incubated at 37° C. in an incubator with 5% CO2 for one day. After the incubation, the evaluation of cell growth inhibitory activity was started. OVTOKO cells were suspended in the RPMI1640 culture medium mentioned above, and plated to a 96-well flat-bottom plate at 250 cells/well in each well, and incubated it at 37° C. in an incubator with 5% CO2 for one day. After the incubation, the evaluation of the cell growth inhibitory activity was started. The next day, a test compound was serially diluted to 5 times of its final concentration in the RPM11640 culture medium mentioned above, and the diluted solution was added to each well. In this case, the final concentration of DMSO in each well was adjusted to 0.1%. After the test compound was added, cells were incubated at 37° C. in an incubator with 5% CO2 for 6 days. At the addition of the test compound and 6 days after the addition, the cell counting measurement was performed using a cell counting kit 8 (made by DOJINDO) according to a protocol equivalent to DOJINDO's recommendation. A reagent contained in the kit was added to each plate and color reaction was performed for 2 or 3 hours at 37° C. in an incubator with 5% CO2. After the reaction, an absorbance at wavelength of 450 nm was measured using a microplate reader. A growth inhibition rate was calculated according to the following formula, from which the concentration of a test compound at which cell growth was inhibited by 50% (GI50 value) was determined.
row,GI50 [µM],SMILES
1,< 1,"C=CC(=O)NCc1ccc(Oc2ccc(C(F)(F)F)cc2)c2nc(C(F)(F)F)oc12 [Compound 248, N-([2-(Trifluoromethyl)-4-{4-(trifluoromethyl)phenoxy}benzo[d]oxazol-7-yl]methyl)acrylamide]"
2,< 1,"C=CC(=O)NC1COc2cc(C)c(Oc3ccc(C(F)(F)F)cc3)cc21 (centres unmarked) [Compound 266, N-{6-Methyl-5-[4-(trifluoromethyl)phenoxy]-2,3-dihydrobenzofuran-3-yl}acrylamide]"
3,< 1,"C=CC(=O)NC1COc2cc(Oc3ccc(C(F)(F)F)cc3)ccc21 (centres unmarked) [Compound 265, N-{6-[4-(Trifluoromethyl)phenoxy]-2,3-dihydrobenzofuran-3-yl}acrylamide]"
4,< 1,"C=CC(=O)NC1CCOc2nc(Oc3ccc(C(F)(F)F)cc3)ccc21 (centres unmarked) [Compound 259, N-[7-{4-(Trifluoromethyl)phenoxy}-3,4-dihydro-2H-pyrano[2,3-b]pyridin-4-yl]acrylamide]"
5,< 1,"C=CC(=O)N[C@@H]1CC[C@H](Oc2ccc(C(F)(F)F)cc2)c2cnccc21 (stereo in doubt) [Compound 228, N-[8-{4-(Trifluoromethyl)phenoxy}-5,6,7,8-tetrahydroisoquinolin-5-yl]acrylamide]"

# System: NCI-H226 cells
# Assay: Cell growth inhibitory effect on human mesothelioma cell line (cell counting kit 8, 6 days)
# Type: cell-based
# Conditions: NCI-H226, 144 h
# Text: as §1
row,SMILES,GI50 [µM]
1,"[H]/C=C/C(=O)NC1CCOc2c1ccc(Oc1ccc(C(F)(F)F)cc1)c2F (racemic) [Compound 31, N-[8-Fluoro-7-{4-(trifluoromethyl)phenoxy}chroman-4-yl]acrylamide]",< 0.1
2,"C=CC(=O)Nc1cncc(Oc2ccc(OC(C)C)nc2)c1 [Compound 110, N-[5-{(6-Isopropoxypyridin-3-yl)oxy}pyridin-3-yl]acrylamide]",0.1 to 1
3,"C=CC(=O)NC1CC[C@@H](Oc2ccc(Cl)cc2)c2nc(OC)ccc21 (stereo in doubt) [Compound 81, trans-N-{8-(4-Chlorophenoxy)-2-methoxy-5,6,7,8-tetrahydroquinolin-5-yl}acrylamide]",0.1 to 1
4,"[H]/C=C/C(=O)NC1CCOc2c1ccc(Oc1ccc(C(F)(F)F)cc1)c2OC (racemic) [Compound 33, N-[8-Methoxy-7-{4-(trifluoromethyl)phenoxy}chroman-4-yl]acrylamide]",< 0.1
5,"C=CC(=O)N[C@@H]1CC[C@H](Oc2ccccc2)c2ncccc21 (relative stereo) [Compound 67, cis-N-(8-Phenoxy-5,6,7,8-tetrahydroquinolin-5-yl)acrylamide]",0.1 to 1

# Second part, the compound after the results:
row,GI50 [µM],SMILES
1,0.1 to 1,"C=CC(=O)N[C@@H]1CC[C@H](Oc2ccc(C(F)(F)F)cc2)c2nc(CC)ccc21 (relative stereo) [Compound 186, cis-N-[2-ethyl-8-{4-(trifluoromethyl)phenoxy}-5,6,7,8-tetrahydroquinolin-5-yl]acrylamide]"
2,0.1 to 1,"C=CC(=O)NCc1ccc(Oc2ccc(C(F)(F)F)cc2)c2nc(C(F)(F)F)oc12 [Compound 248, N-([2-(Trifluoromethyl)-4-{4-(trifluoromethyl)phenoxy}benzo[d]oxazol-7-yl]methyl)acrylamide]"
3,0.1 to 1,"O=C(/C=C/C(F)(F)F)NCc1ccc(Oc2ccc(Cl)cc2)c2ncccc12 [Compound 135, (E)-N-[{8-(4-Chlorophenoxy)quinolin-5-yl}methyl]-4,4,4-trifluoro-2-butenamide]"
4,0.1 to 1,"C=CC(=O)NCc1nc2cc(Oc3ccc(C(F)(F)F)cc3)ccc2o1 [Compound 255, N-([5-{4-(Trifluoromethyl)phenoxy}benzo[d]oxazol-2-yl]methyl)acrylamide]"
5,0.1 to 1,"C=CC(=O)NCc1ccc(CCc2ccc(C(F)(F)F)cc2)c2nc(C)oc12 [Compound 267, N-([2-Methyl-4-{4-(trifluoromethyl)phenethyl}benzo[d]oxazol-7-yl]methyl)acrylamide]"
6,0.1 to 1,"C=CC(=O)NC1COc2cc(C)c(Oc3ccc(C(F)(F)F)cc3)cc21 (centres unmarked) [Compound 266, N-{6-Methyl-5-[4-(trifluoromethyl)phenoxy]-2,3-dihydrobenzofuran-3-yl}acrylamide]"
7,0.1 to 1,"C=CC(=O)NCc1nc2c(Oc3ccc(C(F)(F)F)cc3)cccc2o1 [Compound 254, N-([4-{4-(Trifluoromethyl)phenoxy}benzo[d]oxazol-2-yl]methyl)acrylamide]"
8,0.1 to 1,"C=CC(=O)NC1COc2cc(Oc3ccc(C(F)(F)F)cc3)ccc21 (centres unmarked) [Compound 265, N-{6-[4-(Trifluoromethyl)phenoxy]-2,3-dihydrobenzofuran-3-yl}acrylamide]"
9,< 0.1,"C=CC(=O)N[C@@H]1CC[C@H](Oc2ccc(Cl)c(Cl)c2)c2nc(Cl)ccc21 (relative stereo) [Compound 178, cis-N-{2-Chloro-8-(3,4-dichlorophenoxy)-5,6,7,8-tetrahydroquinolin-5-yl}acrylamide]"
10,0.1 to 1,"C=CC(=O)NC1CCOc2nc(Oc3ccc(C(F)(F)F)cc3)ccc21 (centres unmarked) [Compound 259, N-[7-{4-(Trifluoromethyl)phenoxy}-3,4-dihydro-2H-pyrano[2,3-b]pyridin-4-yl]acrylamide]"
11,0.1 to 1,"C=CC(=O)NC1CCCOc2cc(Oc3ccc(C(F)(F)F)cc3)ccc21 (centres unmarked) [Compound 261, N-[8-{4-(Trifluoromethyl)phenoxy}-2,3,4,5-tetrahydrobenzo[b]oxepin-5-yl]acrylamide]"
12,0.1 to 1,"C=CC(=O)N[C@@H]1CC[C@H](Oc2cnc(Cl)c(Cl)c2)c2nc(Cl)ccc21 (relative stereo) [Compound 181, cis-N-[2-Chloro-8-{(5,6-dichloropyridin-3-yl)oxy}-5,6,7,8-tetrahydroquinolin-5-yl]acrylamide]"
13,0.1 to 1,"C=CC(=O)NCc1ccc(Oc2cnc(C(F)(F)F)nc2)c2ncccc12 [Compound 196, N-{(8-[{2-(Trifluoromethyl)pyrimidin-5-yl}oxy]quinolin-5-yl)methyl}acrylamide]"

# System: OVTOKO cells
# Assay: Cell growth inhibitory effect on human ovarian cancer cell line (cell counting kit 8, 6 days)
# Type: cell-based
# Conditions: 144 h, 6 days incubation
# Text: as §1
row,SMILES,GI50 [µM]
1,"[H]/C=C/C(=O)NC1CCOc2c1ccc(Oc1ccc(C(F)(F)F)cc1)c2F (racemic) [Compound 31, N-[8-Fluoro-7-{4-(trifluoromethyl)phenoxy}chroman-4-yl]acrylamide]",≤ 3
2,"C=CC(=O)Nc1ccc(OCC2CCC(F)(F)CC2)c2ncccc12 [Compound 126, N-[8-{(4,4-Difluorocyclohexyl)methoxy}quinolin-5-yl]acrylamide]",≤ 3
3,"C=CC(=O)Nc1ccc(Oc2ccc(Cl)cc2)c2nc(C)ccc12 [Compound 117, N-{8-(4-Chlorophenoxy)-2-methylquinolin-5-yl}acrylamide]",≤ 3
4,"[H]/C=C/C(=O)NC1CCOc2c1ccc(Oc1ccc(C(F)(F)F)cc1)c2OC (racemic) [Compound 33, N-[8-Methoxy-7-{4-(trifluoromethyl)phenoxy}chroman-4-yl]acrylamide]",≤ 3
5,"C=CC(=O)NC1COc2c(cccc2Oc2ccc(Cl)cc2)C1 (centres unmarked) [Compound 59, N-{8-(4-chlorophenoxy)chroman-3-yl}acrylamide]",≤ 3
6,"C=CC(=O)NC1COc2c(Oc3ccc(Cl)cc3)ccc(C)c2C1 (centres unmarked) [Compound 41, N-{8-(4-Chlorophenoxy)-5-methylchroman-3-yl}acrylamide]",≤ 3
7,"C=CC(=O)Nc1cncc(Oc2ccc(C(F)(F)F)cn2)c1 [Compound 109, N-(5-[{5-(Trifluoromethyl)pyridin-2-yl}oxy]pyridin-3-yl)acrylamide]",≤ 3
8,"C=CC(=O)NC1COc2c(cccc2Oc2cnc(C(F)(F)F)cn2)C1 (centres unmarked) [Compound 157, N-(8-[{5-(Trifluoromethyl)pyrazin-2-yl}oxy]chroman-3-yl)acrylamide]",≤ 3
9,"C=CC(=O)Nc1cncc(Oc2ccnc(C(F)(F)F)c2)c1 [Compound 108, N-(5-[{2-(Trifluoromethy)pyridin-4-yl}oxy]pyridin-3-yl)acrylamide]",≤ 3
10,"C=CC(=O)Nc1cncc(Oc2cccc(C(F)(F)F)c2)c1 [Compound 95, N-[5-{3-(Trifluoromethyl)phenoxy}pyridin-3-yl)acrylamide]",≤ 3
11,"C=CC(=O)NC1CCOc2cc(Oc3ccc(C(F)(F)F)cc3)ccc21 (centres unmarked) [Compound 5, N-[7-{4-(trifluoromethyl)phenoxy}chroman-4-yl]acrylamide]",≤ 3
12,"C=CC(=O)Nc1cncc(Oc2ccc(OC(F)(F)F)cc2)c1 [Compound 100, N-[5-{4-(Trifluoromethoxy)phenoxy}pyridin-3-yl]acrylamide]",≤ 3
13,"C=CC(=O)Nc1cncc(Oc2ccc(C(F)(F)F)cc2)c1 [Compound 96, N-[5-{4-(Trifluoromethyl)phenoxy}pyridin-3-yl]acrylamide]",≤ 3

# Other lines, results leading:
row,GI50 [µM],SMILES
1,≤ 3,"C=CC(=O)NCc1ccc(CCc2ccc(C(F)(F)F)cc2)c2nc(C)oc12 [Compound 267, N-([2-Methyl-4-{4-(trifluoromethyl)phenethyl}benzo[d]oxazol-7-yl]methyl)acrylamide]"
2,≤ 3,"C=CC(=O)NCc1ccc(Oc2ccc(C(F)(F)F)cc2)c2cccnc12 [Compound 216, N-([5-{4-(Trifluoromethyl)phenoxy}quinolin-8-yl]methyl)acrylamide]"
3,≤ 3,"C=CC(=O)NCc1ccc(Oc2ccc(Cl)cc2)c2c1CCCO2 [Compound 176, N-[{8-(4-Chlorophenoxy)chroman-5-yl}methyl]acrylamide]"
4,≤ 3,"[H]/C=C/C(=O)NCc1ccc(Oc2cccc(C(F)(F)F)c2)c2ncccc12 [Compound 137, N-([8-{3-(Trifluoromethyl)phenoxy}quinolin-5-yl]methyl)acrylamide]"
5,≤ 3,"[H]/C=C/C(=O)NCc1cc(Oc2ccnc(Cl)c2)nc2ccccc12 [Compound 150, N-([2-{(2-Chloropyridin-4-yl)oxy}quinolin-4-yl]methyl)acrylamide]"
6,≤ 3,"[H]/C=C/C(=O)NCc1cc(Oc2ccc(C(F)(F)F)nc2)nc2ccccc12 [Compound 149, N-{(2-[{6-(Trifluoromethyl)pyridin-3-yl}oxy]quinolin-4-yl)methyl}acrylamide]"
7,≤ 3,"C=CC(=O)NCc1ccc(Oc2ccc(C(F)(F)F)cc2)c2nc(C)ccc12 [Compound 212, N-([2-Methyl-8-{4-(trifluoromethyl)phenoxy}quinolin-5-yl]methyl)acrylamide]"
8,≤ 3,"C=CC(=O)NCc1ccc(Oc2ccc(C(F)(F)F)cc2)c2nccc(C)c12 [Compound 201, N-([4-Methyl-8-{4-(trifluoromethyl)phenoxy}quinolin-5-yl]methyl)acrylamide]"
